In patent US20170258722A1, “ENCAPSULATING LIPOSOMES” (priority 2012, published 2017):

Protocol: Chloroform was removed by flash evaporation and the lipid mixture was dissolved in 1 ml of warm tert-butanol (also referred to as t-butanol). The tert-butanol solution of lipid was then frozen rapidly by immersing the tube in a mixture of isopropanol and dry ice. […] The excess sulfuric acid was then neutralized by adding an appropriate volume of 5 M sodium hydroxide alone or with phosphate buffer. […] After drug loading, the mixture was diluted with 0.9% w/v sodium chloride and sedimented in an ultracentrifuge for 1 hour at 30,000×g. The supernatant was carefully removed and the pellet was re-suspended in a small volume of 0.9% w/v NaCl.
First, DPPC/cholesterol films were lyophilized from t-butanol-treated lipid films. […] Liposomes were sedimented by centrifugation at 30,000 rpm for 0.5 hour to remove any unencapsulated drug.
To measure the encapsulated contents of the liposomes, the liposomes were washed in 0.9% NaCl solution and solubilized with 1:3:1 NaCl:methanol:chloroform.

With `CCN(CC)CCCC(C)Nc1ccnc2cc(Cl)ccc12` (centres unmarked) [chloroquine] the “Drug Loading (% of Added)” value (Table 2, DPPC:Cholesterol 2:1 liposomes, 0.375M sulfuric acid, phosphate buffered loading) was 100 % of Added and the “loaded using the acid loading methodology” value (sulfuric acid 0.375 M, 6 mg buprenorphine, 33 mg chloroquine added) was 100%.
